How the values were obtained:
[1] = system: pneumovirus of mice (PVM); experiment: Pneumovirus (PVM) infection of neonatal mice with IL-22 administration; assay type: in vivo, C57BL/6 mice
Method: Total RNA was extracted from animal tissues by homogenizing in TRIzol and separated via chloroform phase separation. RNA was purified using High Pure RNA isolation kit (ROCHE) as per the manufacturer's instructions, including DNASE treatment. Extraction purity was assessed by NANODROP, ensuring the expected A260/280 value for RNA between 1.8 and 2.0. Reverse transcription was performed on 1 μg of RNA using 5×ISCRIPT reaction mix and ISCRIPT reverse transcriptase (BIORAD). Quantitative, reverse transcription polymerase chain reaction (qRT-PCR) was performed to quantify expression of PVM gene Src homology (SH), using specific exon-spanning primer sequences and amplified with SYBR Premix Ex TAQ II polymerase (TAKARA). All gene expression was quantified in duplicate using a Viia 7 Real Time PCR System (APPLIED BIOSYSTEMS) and relative fold changes were calculated using the 2^−ΔΔCt method, comparing to the mean of naïve uninfected mice after normalizing to the β-actin housekeeping gene ACTB.
Five-day old neonatal C57BL/6 mice were administered intraperitoneal (i.p.) injections of either recombinant mouse IL-22 (rmIL-22) (20 ng/g every three days) [R&D Systems, #582-ML/CF], or an irrelevant IgG1 mock treatment control (12.5 μg/mouse, weekly) [Lilly Pharmaceuticals, LSN2404993]. […]
Paraffin embedded left lobes were sectioned onto Superfrost plus slides. […] This scoring system assessed inflammation in the small airspaces, peribronchiolar interstitial, alveolar interstitial and injury in the airway epithelium. The degree of lung injury and inflammation was scored blindly.
Cells infected by PVM were visualized by immunohistochemistry using rabbit anti-mouse PVM antibody (polyclonal at 1:8000) (ALPHA DIAGNOSTIC, PVMNP14-S). […] PVM infection was quantified by counting number of infected cells in 4-5 bronchioles per mouse and expressed as the number of infected cells per length of bronchiole epithelium. All sections were visualized on a VS120-L100 slide scanner microscope (OLYMPUS) and analyzed using OlyVIA v2.4 (OLYMPUS) and IMAGEJ v1.45s.

[2] = system: MIN6N8 murine β-cells; experiment: ER stress (ERAI reporter of Xbp1-splicing / Xbp1 splicing) in MIN6N8 β-cells; assay type: cell-based
Method: MIN6N8 cells are maintained in line with standard protocols. Cells are transfected with either the ERAI reporter plasmid (F-XBP1ΔDBD-Venus), or the ATF6-GFP plasmid (ADGENE), using LIPFECTAMINE 2000 according to the manufacturer's instructions.
On induction of ER stress, splicing of […] mRNA by IRE1a results in the translation of Venus, but not an active form of XBP1. Fluorescence was measured (excitation: 485 nm; emission: 520 nm) using the POLARstar Omega plate reader and cells were treated 48 h after transfection. The results are normalized with Gapdh expression as fold of vehicle-treated control (Con) cells.
Activation of ATF6 was assessed as follows: the area in pixels per square millimeter co-stained ATF6 and DAPI (blue and green), and total ATF6 staining (green) was determined in 5 fields of view for each section (n=6 for each condition) using IMAGEJ software version 1.45s. Data are presented as the percentage of ATF6 and DAPI co-fluorescence to the total ATF6 fluorescence. Phosphorylation of Ser-51 of eiF2 α was determined by an AlphaScreen assay as per the manufacturer's instructions (PERKIN-ELMER). The Griess reagent method was performed according to the manufacturer's instructions (MOLECULAR PROBES) to assess the intracellular levels of nitric oxide. 5-(and -6-)-carboxy-2,7-dichlorofluorescein diacetate (DCFDA) assay was used to determine the intracellular levels of H2O2 as previously described (Sakon et al., 2003). Cells were treated with glucose or recombinant cytokines at the concentrations indicated in the figure legends, or with 5 μM thapsigargin (SIGMA-ALDRICH) or 10 μg/mL tunicamycin (SIGMA-ALDRICH) or 0.1-0.5 mM Palmitate (SIGMA-ALDRICH) for the times indicated in the legends. ROS was […] using the dihydroethidium (DHE) fluorescent cell-permeable probe (SIGMA-ALDRICH). MIN6N8 cells plated at 2×10^6/mL were incubated with 3 μM DHE and subsequently treated with DMSO (control), 50 ng/mL IL-23 for 30 minutes±[…] IL-22 at the same time or 30 minutes prior to IL-23.
To inhibit transcription factors the following specific inhibitors (and concentrations) were used:
MIN6N8 cells were exposed to a panel of cytokines to determine the effect of each cytokine on ER stress. ER stress was measured using the above-described method. Specifically, the cells were exposed to either a 24 hour treatment of any one of […] glucose (hi glucose), 10 μM H2O2, 0.5 mM palmitic acid or 50 ng/mL cytokines; or a 6 hour treatment with 10 μg/mL tunicamycin or 5 μM thapsigargin.
Experiments to assess ER and/or oxidative stress, and methods of qRT-PCT and/or quantifying gene expression were performed as described for Example 1. Xbp1 splicing is assessed by qRT-PCR, with normalization versus Gapdh, and expression presented as fold of vehicle-treated control cells.

Substance: IL-22: interleukin-22; recombinant murine IL-22 (R&D SYSTEMS) in the mouse experiments
- mice that died between days 5 and 6 post infection ([1]; 20 ng/g i.p. every three days, 100 PFU PVM): 7/9
- increase of PVM gene expression (PCR) ([1]; 5 days post infection): 2.2 fold
- lung injury score, times higher ([1]; 5 days post infection): 1.7 times
- UPR activation when ER stress is induced with thapsigargin ([2]; 5 μM thapsigargin ± IL-22, 6 hours): increases UPR activation
- ER stress induced with palmitic acid ([2]; 0.1-0.5 mM palmitic acid ± IL-22, 24 hours): inhibits ER stress
- lowest concentration with efficacy as suppressor of ER stress ([2]; MIN6 β-cells): around 5 ng/mL
- UPR activation by the cytokine alone ([2]; no stressor): does not appear to activate the UPR
- inhibition of ER stress initiated by cytokines or tunicamycin ([2]; pair-wise combinations of cytokines): inhibit ER stress

From US10695406B2, “Modulation of cellular stress using a B-cell oxidative and/or endoplasmic reticulum stress inhibitor and a targeting agent” (THE UNIVERSITY OF QUEENSLAND, priority 2014, dated 2020)
